Experiments:
PC12D cells = PC12D cells (Li et al., 2004); cited from earlier work
[1] = system: NGF-induced neurite outgrowth; conditions: Feng et al., 2004; cited from earlier work
[2] = system: fluorescent blood vessels; conditions: transgenic fluorescent embryos (Parng et al., 2002); cited from earlier work
[3] = system: HBNF-induced neurite outgrowth; assay: modified in vivo neurite outgrowth assay in zebrafish embryos, inhibition by injected heparin; conditions: heparin injected into zebrafish embryo at two- or four-cell stage; data not shown
Source text: As mentioned above, we modified the in vivo neurite outgrowth assay in zebrafish embryos to investigate the inhibitory effect of heparin or heparan sulfate on HBNF-induced neurite outgrowth by further injection of different dosage of heparin or heparan sulfate into zebrafish embryo at two- or four-cell stage. […] Therefore, the modified assay system also can be used to compare the inhibitory or enhancing effect of HBNF/PTN-induced neurite outgrowth in vivo by heparin and its modified forms, N-syndecan-derived saccharides, and other glycosaminoglycans.

cultured neurons = cultured neurons / neuronal cells (Raulo et al., 1994; Kinnunen et al., 1996; Rauvala et al., 1997); cited from earlier work
[4] = system: GFP-labeled neurons in zebrafish embryos; assay: in vivo neurite outgrowth promotion assay, expression construct coinjected with pHuC-GFP into zebrafish embryos; parameters: species or system Zebrafish (Danio rerio); conditions: expression construct coinjected with pHuC-GFP at one-cell stage; observed at 48 or 72 hpf
Experimental: The expression construct pcDNA-HBNF-HA and pHuC-GFP (panels 2, 5-7) were coinjected into zebrafish embryos at 1-cell stage. Similar injection of pHuC-GFP alone (panel 1) was used as control. Zebrafish embryos at 72 h postfertilization with GFP fluorescence were selected for image analysis. Embryos are shown as lateral view with anterior to the left. Experiments were repeated at least three times and at least 100 fertilized eggs were used for injection of expression constructs at each time. Four representative patterns with significant enhancement of neurite outgrowth (panels 2, 5-7) were shown. Images of bright field and fluorescence were merged and shown in panels 1, 2, and 5-7, while fluorescence images only in panels 3, 4, 8-10. Higher magnification of two regions marked with yellow boxes in panel 2 was shown in panel 3 and 4, respectively. N, notochord; DF, dorsal fin; VF, ventral fin. Scale bars represent 100 μm.
The expression construct pcDNA-NGF-HA and pHuC-GFP were coinjected into zebrafish embryos at 1-cell stage. Similar injection of pHuC-GFP alone was used as control. Zebrafish embryos at 72 hpf with GFP fluorescence were selected for image analysis. Embryos are shown as lateral view with anterior to the left. Images of bright field and fluorescence were merged and shown in panel 1, while fluorescence images only in panel 2. Higher magnification of the head region and tail region with significant neurite outgrowth in panel 2 was shown in panels 3 and 4, respectively.
The expression construct pGFAP-GDNF-HA and pHuC-GFP were coinjected into zebrafish embryos at 1-cell stage. Similar injection of pHuC-GFP alone was used as control. Zebrafish embryos at 48 hpf with GFP fluorescence were selected for image analysis. […] Images of bright field and fluorescence were merged and shown in panel 1, while fluorescence images only in panel 2. […]
Zebrafish (Danio rerio) were maintained at 28° C. on a 14 h-light/10 h-dark cycle. Embryos were incubated at 28° C. and different developmental stages were determined according to the description in Zebrafish Book (Westerfield, 1995). […]

PC12 cells = assay: neurite outgrowth in PC12 cells transfected with pcDNA-HBNF-HA; format: cell-based, rat; conditions: transfected HBNF cDNA under CMV promoter, without NGF stimulation, 72 h posttransfection
[5] = system: neuro2A neuroblastoma cells; conditions: Hiwasa et al., 1997; cited from earlier work
[6] = infused directly in putamen (Gill et al., 2003); cited from earlier work

## CC(=O)O[C@@H]1[C@@H](O)[C@H](C)O[C@@H](OC[C@H]2O[C@@H](Oc3cc(O)c4c(=O)cc(-c5ccc(O)cc5)oc4c3)[C@H](O)[C@@H](O)[C@@H]2O)[C@@H]1O [Compound 2, apigenin 7-O-alpha-L-3-O-acetylrhamnopyranosyl-(1→6)-beta-D-glucopyranoside]
PC12D cells
  enhancing activity of nerve growth factor-mediated neurite outgrowth: enhancing activity

## CC(=O)O[C@@H]1[C@@H](O)[C@H](C)O[C@@H](OC[C@H]2O[C@@H](Oc3cc(O)c4c(=O)cc(-c5ccc(O)cc5)oc4c3)[C@H](O)[C@@H](O)[C@@H]2O)[C@@H]1OC(C)=O [Compound 3, apigenin 7-O-alpha-L-2,3-di-O-acetylrhamnopyranosyl-(1→6)-beta-D-glucopyranoside]
PC12D cells
  enhancing activity of nerve growth factor-mediated neurite outgrowth: enhancing activity

## COC(=O)[C@]1(O)C[C@H]2O[C@]1(C)n1c3ccc(O)cc3c3c4c(c5c6ccccc6n2c5c31)C(=O)NC4=O [Indocarbazostatin C, Indocarbazostatins C]
[1]
  inhibition of NGF-induced neurite outgrowth: inhibitors of NGF-induced neurite outgrowth

## COC(=O)[C@]1(O)C[C@H]2O[C@]1(C)n1c3ccc(O)c(N)c3c3c4c(c5c6ccccc6n2c5c31)C(=O)NC4=O [Indocarbazostatin D]
[1]
  inhibition of NGF-induced neurite outgrowth: inhibitors of NGF-induced neurite outgrowth

## Cc1[nH]c(/C=C2\C(=O)Nc3ccccc32)c(C)c1CCC(=O)O [SU-6668]
[2]
  inhibition of angiogenesis: inhibit angiogenesis

## heparin
[3]
  inhibitory effect on HBNF-induced neurite outgrowth: inhibit HBNF-induced neurite outgrowth

## low molecular weight heparin
Cultured neurons
  inhibition of HBNF/PTN-induced neurite outgrowth: more potent inhibition

B1: zebrafish HBNF: zebrafish heparin-binding neurotrophic factor (SEQ ID NO: 1) expressed from pcDNA-HBNF-HA (protein)
chain: MQQQWVCVALLALLTVTATLADGGKTEKQGKKERKSDCGEWQWSVCVANEGDCGLGIREGTRSGNDCKQTIKTQRCKIPCNWKKQFGGECKYDFQAWGECDSTTGMKTRTGVLKRALMDANCPNTVSATKPCGKPKTKMQDSQKPKRDGKKKERNPTD
modifications: HA tag; Danio rerio
[4]
  enhancement of neurite outgrowth in zebrafish embryos: enhance extensive neurite outgrowth
PC12 cells
  neurite outgrowth in PC12 cells: induce significant neurite outgrowth

B2: zebrafish GDNF: zebrafish glial-derived neurotrophic factor expressed in glia cells from pGFAP-GDNF-HA (protein, UniProt Q98TU0 90-235, looked up)
Glial cell line-derived …: SSDVEPQMKRDRVRQKAAANTEKSGGRGRGERKRSRGRARSRDDRVKGQGRGCLLKEIHLNVTDLDLGYRTKEELIFRYCSGPCHDAETNYDKILNNLTHNKKLDKDTPSRTCCRPIAFDDDISFLDDSLEYHTLKKHSAKKCACV
modifications: HA tag
notes: zebrafish glial-derived neurotrophic factor expressed in glia cells from pGFAP-GDNF-HA
[4]
  enhancement of neurite outgrowth in zebrafish embryos: induce extensive neurite outgrowth

B3: zebrafish NGF: zebrafish nerve growth factor expressed from pCMV-NGF-HA (protein, UniProt Q6YBR5 77-194, looked up)
Nerve growth factor: KAGPPQHRGVYSVCESISHWEGNKTKATDITGNEVTVLPDVIINNSKKKQYFFETTCSSGRTGGSGCLGIDARHWNSYCTNSHTFVRALTSFKNLVAWRLIRINVACVCVLSRKSWRA
modifications: HA tag
notes: zebrafish nerve growth factor expressed from pCMV-NGF-HA
[4]
  enhancement of neurite outgrowth in zebrafish embryos: induce extensive neurite outgrowth

B4: recombinant GDNF: recombinant glial-derived neurotrophic factor (Hiwasa et al., 1997) (protein, UniProt P39905 78-211, looked up)
Glial cell line-derived …: SPDKQMAVLPRRERNRQAAAANPENSRGKGRRGQRGKNRGCVLTAIHLNVTDLGLGYETKEELIFRYCSGSCDAAETTYDKILKNLSRNRRLVSDKVGQACCRPIAFDDDLSFLDDNLVYHILRKHSAKRCGCI
[5]
  neurite outgrowth of neuro2A neuroblastoma cells: induce neurite outgrowth

B5: GDNF: glial-derived neurotrophic factor infused directly in putamen in a clinical trial (protein, UniProt P39905 78-211, looked up)
Glial cell line-derived …: B4 Glial cell line-derived …
[6]
  side-effects: does not have significant side-effects
  treatment effect in Parkinson disease: effective treatment for Parkinson disease

Source: patent publication US7671251B2, “In vivo assay for neurite outgrowth in zebrafish and its application in drug screening” (Academia Sinica, priority 2005, dated 2010)
